Consider 24 compounds from PubChem BioAssay AID192 (DTP/NCI, 2004).

Several values for one entry are separate records, joined by “and”; a condition that tells them apart may be missing. Equal values may be shown once. Inconclusive results and toxic doses are left out.

For this test, the system named is BDF1 mice, B16 melanoma ip, median survival T/C. Briefly: NCI In Vivo Anticancer Drug Screen. Data for tumor model B16 Melanoma (intraperitoneal) in B6D2F1 (BDF1) mice. The following applies: endpoint: median survival time, higher = longer survival. In a few lines: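 Tumor-bearing mice received test compound or vehicle. Survival or tumor size was then measured in both groups. The treated-group figure was divided by the control-group figure.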

[1] abbreviates: dose: 25.0 mg/kg/injection, schedule: Q01DX009 (ip), vehicle: Klucel (hydroxypropylcellulose) (HPC).
Setting [2] is: dose: 50.0 mg/kg/injection, schedule: Q01DX009 (ip), vehicle: Klucel (hydroxypropylcellulose) (HPC).
[3] abbreviates: dose: 100.0 mg/kg/injection, schedule: Q01DX009 (ip), vehicle: Klucel (hydroxypropylcellulose) (HPC).
[4] abbreviates: dose: 200.0 mg/kg/injection, schedule: Q01DX009 (ip), vehicle: Klucel (hydroxypropylcellulose) (HPC).
[5] abbreviates: dose: 12.5 mg/kg/injection, schedule: Q01DX009 (ip), vehicle: saline with Tween-80.
The mark [6] stands for this setting: dose: 25.0 mg/kg/injection, schedule: Q01DX009 (ip), vehicle: saline with Tween-80.
[7] abbreviates: dose: 50.0 mg/kg/injection, schedule: Q01DX009 (ip), vehicle: saline with Tween-80.
Setting [8] is: dose: 100.0 mg/kg/injection, schedule: Q01DX009 (ip), vehicle: saline with Tween-80.
The mark [9] stands for this setting: dose: 12.5 mg/kg/injection, schedule: Q04DX003 (ip), vehicle: saline with Tween-80.
Where [10] appears, read: dose: 12.5 mg/kg/injection, schedule: Q01DX009 (ip), vehicle: Klucel (hydroxypropylcellulose) (HPC).
The mark [11] stands for this setting: dose: 25.0 mg/kg/injection, schedule: Q01DX009 (ip), vehicle: saline.
Setting [12] is: dose: 400.0 mg/kg/injection, schedule: Q01DX009 (ip), vehicle: Klucel (hydroxypropylcellulose) (HPC).
Setting [13] is: dose: 6.25 mg/kg/injection, schedule: Q01DX009 (ip), vehicle: saline with Tween-80.
The mark [14] stands for this setting: dose: 100.0 mg/kg/injection, schedule: Q04DX003 (ip), vehicle: Klucel (hydroxypropylcellulose) (HPC).

Take `C=Cc1c2[n-]c(c1C)/C=c1\[n-]/c(c(C)c1C=C)=C\c1[n-]c(c(CCC(=O)O)c1C)/C=c1\[n-]/c(c(C)c1CCC(=O)O)=C\2.[Co]`: the T/C runs as follows: under setting [1], 95 % of control; under setting [2], 94 % of control; under setting [3], 92 % of control; under setting [4], 87 % of control; (dose: 1:1.0 dilution, schedule: Q01DX009 (ip), vehicle: saline) 90 % of control; (dose: 1:2.0 dilution, schedule: Q01DX009 (ip), vehicle: saline) 99 % of control. Moreover, the T/C runs as follows: (dose: 1:4.0 dilution, schedule: Q01DX009 (ip), vehicle: saline) 105 % of control; (dose: 1:8.0 dilution, schedule: Q01DX009 (ip), vehicle: saline) 112 % of control.

In the case of `C(=N\Nc1nn[nH]n1)/c1ccccc1`, the T/C runs as follows: under setting [5], 92 % of control; under setting [6], 96 % of control; under setting [7], 89 % of control; under setting [8], 90 % of control.

Regarding `CC1(C)N=C(N)N=C(N)N1c1ccc(OCc2ccc(C(=O)Nc3cccc(S(=O)(=O)F)c3)cc2)c(Cl)c1`, the T/C is 119 % of control under setting [9] and 166 % of control (dose: 50.0 mg/kg/injection, schedule: Q04DX003 (ip), vehicle: saline).

For the compound `c1ccc2c(c1)C1=NCCN1c1ccccc1-2`, the T/C runs as follows: (dose: 12.0 mg/kg/injection, schedule: Q01DX009 (ip), vehicle: saline with Tween-80) 92 % of control; (dose: 18.0 mg/kg/injection, schedule: Q01DX009 (ip), vehicle: saline with Tween-80) 94 % of control; (dose: 26.0 mg/kg/injection, schedule: Q01DX009 (ip), vehicle: saline with Tween-80) 102 % of control.

For the compound `COc1ccc(Cl)cc1N`, the T/C under setting [6] was 95 % of control, the T/C under setting [7] is 100 % of control and the T/C under setting [8] is 105 % of control.

On to `O=C(/C=C/C(=O)Oc1ccc(Cl)cc1Cl)Oc1ccc(Cl)cc1Cl`, for which the T/C under setting [1] was 100 % of control; the T/C under setting [2] was 91 % of control; the T/C under setting [3] is 88 % of control and 94 % of control.

Regarding `O=[N+]([O-])c1cc(C(F)(F)F)ccc1F`, the T/C was 101 % of control under setting [10], 109 % of control under setting [1], 109 % of control under setting [2] and 108 % of control under setting [3].

Regarding `CCCCN1CCNCC1`, the T/C runs as follows: under setting [11], 103 % of control; (dose: 50.0 mg/kg/injection, schedule: Q01DX009 (ip), vehicle: saline) 103 % of control; (dose: 100.0 mg/kg/injection, schedule: Q01DX009 (ip), vehicle: saline) 101 % of control.

Turning to `CN1CCC(=C(C#N)C#N)CC1`, the T/C is 105 % of control (dose: 3.13 mg/kg/injection, schedule: Q04DX003 (ip), vehicle: saline); 94 % of control (dose: 6.25 mg/kg/injection, schedule: Q04DX003 (ip), vehicle: saline); 110 % of control (dose: 12.5 mg/kg/injection, schedule: Q04DX003 (ip), vehicle: saline).

In the case of `C(=C\c1ccccc1)/C[P+](c1ccccc1)(c1ccccc1)c1ccccc1`, the T/C was 100 % of control (dose: 0.06 mg/kg/injection, schedule: Q01DX009 (ip), vehicle: saline sonified); 93 % of control (dose: 1.25 mg/kg/injection, schedule: Q01DX009 (ip), vehicle: saline sonified); 97 % of control (dose: 2.5 mg/kg/injection, schedule: Q01DX009 (ip), vehicle: saline sonified); 91 % of control (dose: 5.0 mg/kg/injection, schedule: Q01DX009 (ip), vehicle: saline sonified).

`O=C(Cl)COc1cccc2ccccc12`: the T/C was 103 % of control under setting [3], 110 % of control under setting [4] and 106 % of control under setting [12].

For the compound `C=CC(=O)NCNC(=O)CCBr`, the T/C reads like this: under setting [1], 115 % of control; under setting [2], 121 % of control; under setting [3], 123 % of control.

As for `CCCCOB(/C=C/Sc1ccccc1)OCCCC`, the T/C by setting is: (dose: 6.25 mg/kg/injection, schedule: Q01DX009 (ip), vehicle: saline) 101 % of control; (dose: 12.5 mg/kg/injection, schedule: Q01DX009 (ip), vehicle: saline) 119 % of control; under setting [11], 100 % of control; (dose: 35.0 mg/kg/injection, schedule: Q01DX009 (ip), vehicle: saline) 117 % of control; under setting [2], 102 % of control; (dose: 300.0 mg/kg/injection, schedule: Q01DX009 (ip), vehicle: Klucel (hydroxypropylcellulose) (HPC)) 101 % of control.

Turning to `COc1ccc([I+]c2cccc(Cl)c2)cc1Cl`, the T/C is 112 % of control under setting [13], 112 % of control under setting [5] and 104 % of control under setting [6].

For `COc1cc(C(=O)O)c(Br)cc1C`, the T/C runs as follows: under setting [14], 105 % of control; (dose: 200.0 mg/kg/injection, schedule: Q04DX003 (ip), vehicle: Klucel (hydroxypropylcellulose) (HPC)) 97 % of control.

In the case of `O=C([CH-]C(=O)C(F)(F)F)c1ccccc1.O=C([CH-]C(=O)C(F)(F)F)c1ccccc1.O=C([CH-]C(=O)C(F)(F)F)c1ccccc1.O=C([CH-]C(=O)C(F)(F)F)c1ccccc1.[Eu+3].c1ccncc1`, the T/C reads like this: under setting [10], 92 % of control and 96 % of control; under setting [1], 88 % of control and 97 % of control; under setting [2], 92 % of control and 101 % of control; under setting [3], 93 % of control and 98 % of control; under setting [4], 102 % of control and 107 % of control; under setting [12], 93 % of control and 98 % of control.

Regarding `C/C(=N/O)[c-]1[c-][c-][c-][c-]1.[Fe].[c-]1[c-][c-][cH-][c-]1`, the T/C was 91 % of control (dose: 3.13 mg/kg/injection, schedule: Q01DX009 (ip), vehicle: saline with Tween-80); 98 % of control (dose: 3.13 mg/kg/injection, schedule: Q04DX003 (ip), vehicle: saline with Tween-80); 100 % of control under setting [13]; 96 % of control (dose: 6.25 mg/kg/injection, schedule: Q04DX003 (ip), vehicle: saline with Tween-80); 97 % of control under setting [5]; 94 % of control under setting [9].

Consider `CC(OCc1ccccc1)C(NC(=O)OC(C)(C)C)C(=O)O` (stereo unspecified), for which the T/C reads like this: under setting [13], 97 % of control; under setting [5], 98 % of control; under setting [6], 102 % of control; under setting [7], 88 % of control and 95 % of control.

As to `O=C1C(CCSc2ccccc2)C(=O)N(c2ccccc2)C1c1ccccc1` (stereo unspecified), the T/C was 116 % of control under setting [3], 113 % of control under setting [4] and 110 % of control under setting [12].

`Cc1nc(/N=N/c2nc(C)c(C)[nH]2)[nH]c1C`: the T/C was 102 % of control under setting [3], 101 % of control under setting [4] and 96 % of control under setting [12].

As for `C[C@]12CC[C@H](O)C[C@@H]1CC[C@@H]1[C@@H]2C(=O)C[C@@]2(C)[C@H]1CC[C@]2(O)C(=O)CBr`, the T/C runs as follows: under setting [2], 90 % of control; under setting [7], 100 % of control; under setting [3], 93 % of control; under setting [8], 94 % of control; (dose: 200.0 mg/kg/injection, schedule: Q01DX009 (ip), vehicle: saline with Tween-80) 91 % of control.

`Cc1cc(Cl)ccc1NC(=O)Nc1ccc(Cl)c(Cl)c1`: the T/C (dose: 50.0 mg/kg/injection, schedule: Q04DX003 (ip), vehicle: Klucel (hydroxypropylcellulose) (HPC)) was 90 % of control and the T/C under setting [14] is 95 % of control.

Take `COC(CBr)c1ccccc1` (stereo unspecified): the T/C is, setting by setting: (dose: 3.12 mg/kg/injection, schedule: Q01DX009 (ip), vehicle: Klucel (hydroxypropylcellulose) (HPC)) 102 % of control; (dose: 6.25 mg/kg/injection, schedule: Q01DX009 (ip), vehicle: Klucel (hydroxypropylcellulose) (HPC)) 104 % of control; (dose: 10.0 mg/kg/injection, schedule: Q04DX003 (ip), vehicle: Klucel (hydroxypropylcellulose) (HPC)) 97 % of control; under setting [10], 92 % of control; (dose: 20.0 mg/kg/injection, schedule: Q04DX003 (ip), vehicle: Klucel (hydroxypropylcellulose) (HPC)) 87 % of control; (dose: 40.0 mg/kg/injection, schedule: Q04DX003 (ip), vehicle: Klucel (hydroxypropylcellulose) (HPC)) 87 % of control.

Consider `CCCCCCCCCCCCCCCC[N+]1(CC)CCCC1`, for which the T/C runs as follows: (dose: 0.1 mg/kg/injection, schedule: Q01DX009 (ip), vehicle: Klucel (hydroxypropylcellulose) (HPC)) 102 % of control; (dose: 0.2 mg/kg/injection, schedule: Q01DX009 (ip), vehicle: Klucel (hydroxypropylcellulose) (HPC)) 95 % of control.
